The source of these data is patent US9796760B2, “Modified peptide, CB receptor ligand, kit in vitro process for evaluating CB receptor bonds, uses, pharmaceutical composition for modulating CB receptor activity” (Proteimax Biotecnologia Ltda, priority 2012, dated 2017).

“Also recorded” adds a separate entry of the source. No end group written: not given here.

Data set [1] is described as follows: Glucose in animals supplemented with 20% sucrose, 30 days-treatment. The format is in vivo, Winstar rats. The conditions noted are these: Rimonabant (positive control, dose not given), 15th and 30th days of treatment. Here is the method:
Winstar rats fed with standard regimen supplemented with 20% sucrose were used in the drinking water during 60 days before and during the 30 days-treatment with SALINE (negative control), Rimonabant (positive control), Peptide 19 (Pep 19) in the concentration of 50 μg/Kg and Peptide 19 (Pep 19) in the concentration of 100 μg/Kg.

The nature of data set [2]: Test in retroperitoneal adipose tissue, 3 days oral treatment. The format is in vivo, Thin wistar rats. To be noted: 100 ug/Kg, 3 days orally, vs Rimonabant and/or saline groups. Here is the method:
(§1) Furthermore, in a treatment acute model (3 days of treatment orally in non-obese wistar rats) it was verified the brown adipose tissue activation, the retroperitoneal, inguinal and brown adipose tissues reduction, as well the adiposity ratio (FIGS. 4 to 9), effects not observed with Rimonabant.
The measure of the adipose tissue was performed after finishing the treatment. The results are expressed by the retroperitoneal adipose tissue weight measured for treatment purpose (scale of g/100 g). Rats administered with vehicle (saline) were subject to the same protocol (control).

The nature of data set [3]: Test in brown adipose tissue, 3 days oral treatment. The format is in vivo, Thin wistar rats. Here is the method:
as §1
The measure of the adipose tissue was performed after finishing the treatment. The results are expressed by the brown adipose tissue weight measured at the treatment end (scale of g/100 g). Rats administered with vehicle (saline) were subject to the same protocol (control).

The conditions of data set [4]: prior art statement; cited from earlier work.
Data set [5] is described as follows: Cholesterol in animals supplemented with 20% sucrose, 30 days-treatment. The format is in vivo, Wistar rats. To be noted: Rimonabant (positive control, dose not given), after 30 days-treatment. The procedure:
Wistar rats fed with standard regimen supplemented with 20% sucrose were used in the drinking water during 60 days before and during the 30 days-treatment with SALINE (negative control), Rimonabant (positive control), Peptide 19 (Pep 19) in the concentration of 50 μg/Kg and Peptide 19 (Pep 19) in the concentration of 100 μg/Kg.

Data set [6] is described as follows: Adiposity ratio determination, 3 days oral treatment. The format is in vivo, Thin wistar rats. The conditions noted are these: 100 ug/Kg, 3 days orally, vs Rimonabant and/or saline groups. The procedure:
as §1
Thin wistar rats were treated with a Rimonabant dosage (100 ug/Kg) or peptide 19 (Pep 19 100 ug/Kg) during 3 days orally. The measure of the adiposity ratio was performed after finishing the treatment using the formula (%), (I=Σ fat deposits/body weight×100). The results are expressed by the animal weight measured at the treatment end (scale of g/100 g). Rats administered with vehicle (saline) were subject to the same protocol (control).

Data set [7] is described as follows: Test in inguinal adipose tissue, 3 days oral treatment. To be noted: 100 ug/Kg, 3 days orally, vs Rimonabant and/or saline groups. The format is in vivo, Thin wistar rats. The procedure:
as §1
The measure of the adipose tissue was performed after finishing the treatment. The results are expressed by the inguinal adipose tissue weight measured at the treatment end (scale of g/100 g). Rats administered with vehicle (saline) were subject to the same protocol (control).

The target in data set [8] is CB1 receptor (Homo sapiens, UniProt P21554). To be noted: disclosed in WO 2011/011847; cited from earlier work.
CB1 receptor (Homo sapiens, UniProt P21554), sequence (P21554 whole entry): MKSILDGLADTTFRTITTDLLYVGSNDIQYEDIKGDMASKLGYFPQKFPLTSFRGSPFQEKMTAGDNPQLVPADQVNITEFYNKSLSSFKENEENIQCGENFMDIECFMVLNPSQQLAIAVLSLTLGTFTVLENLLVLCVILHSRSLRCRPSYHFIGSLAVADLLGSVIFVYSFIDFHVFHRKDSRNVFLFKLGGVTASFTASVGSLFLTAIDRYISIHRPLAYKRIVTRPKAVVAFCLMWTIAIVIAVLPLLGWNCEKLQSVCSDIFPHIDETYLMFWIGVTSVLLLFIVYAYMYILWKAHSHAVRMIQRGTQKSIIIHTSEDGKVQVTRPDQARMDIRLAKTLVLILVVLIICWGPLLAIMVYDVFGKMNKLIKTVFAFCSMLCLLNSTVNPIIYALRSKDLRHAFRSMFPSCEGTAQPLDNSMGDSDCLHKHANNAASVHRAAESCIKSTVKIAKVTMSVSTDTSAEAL
The nature of data set [9]: Pain test: carrageenan-induced hyperalgesia, intraplantar administration. The format is in vivo, Rats. To be noted: 20 g by leg, immediately before carrageenan 200 g by leg, 0 h and 3 h. The procedure:
It was performed the comparative analysis of the peptide intraplantar administration over the carrageenan-induced hyperalgesia. Rats were treated with peptide ([…]) immediately before the carrageenan intraplantar administration ([…]) and were evaluated using a pressure apparatus […] (0 h and empty legs) and 3 h after administration of carrageenan (black legs).

A short description of data set [10]: Activity on oral administration (statement, no separate method). The format is in vivo, mammalian.
The subject of data set [11] is CB1 receptor. The data set is described as follows: ELISA with striate membranes and anti-CB1 antibody, receptor activating percentage vs non-treated membrane. The format is biochemical. To be noted: 2 hours; for activity regarding the CB1 (receptor activating percentage regarding control): striate membranes 5 μg/pool, 1 μM of each drug, ambient temperature, variants compared with SeqID:1. The procedure: (§2) The receptor activating percentage was calculated regarding the control, non-treated membrane (100%). […] Significant differences are indicated and p<0.05.

Data set [12] can be described thus: Depression model (forced swim). The format is in vivo. The conditions noted are these: rats. The procedure: The forced swim test was performed based on the previous tests ([Harkin et al., 2004], [Petit-Demouliere et al., 2005] and [Treit and Menard, 1998]).
The subject of another data set is CB2 receptor. The experiment in a line: ELISA with striate membranes for CB2 receptor, receptor activating percentage vs non-treated membrane. The format is biochemical. The conditions noted are these: striate membranes 5 μg/pool, 1 μM of each drug, 2 hours, ambient temperature. Here is the method:
as §2
(In general: In an ELISA, binding on a coated surface is turned into a signal by an enzyme label.)

For `Cc1c(C(=O)NN2CCCCC2)nn(-c2ccc(Cl)cc2Cl)c1-c1ccc(Cl)cc1` [Rimonabant], the glycaemia result in data set [1] is “lower glycaemia”. In addition, in data set [2], the “retroperitoneal adipose tissue mass” value was “not observed”. Besides, in [3] (100 ug/Kg, 3 days orally, vs Rimonabant and/or saline groups), the “brown adipose tissue mass” value is “not observed”. The “brown adipose tissue activation” value in data set [3] (3 days of treatment orally in non-obese wistar rats) is recorded as “not observed”. In [4], the “crossing the hematoencephalic barrier” value is on record as “crossing the hematoencenphalic layer”. Also, the “cholesterol in % from SALINE animals” value in data set [5] is “lower cholesterol percentages”. Also, the adiposity ratio result in data set [6] was “not observed”. In data set [7], the “inguinal adipose tissue mass” value is given as “not observed”.

Take `CC(C)C[C@H](NC(=O)[C@H](Cc1ccccc1)NC(=O)[C@H](CCCCN)NC(=O)[C@H](Cc1ccccc1)NC(=O)[C@H](CC(N)=O)NC(=O)[C@@H](NC(=O)[C@@H]1CCCN1)C(C)C)C(=O)N[C@@H](CO)C(=O)N[C@@H](Cc1cnc[nH]1)C(=O)O` [hemopressin]: the “binding to the CB1 receptor” value at CB1 receptor [8] is given as “binding efficiently”. Besides, the “crossing the hematoencephalic barrier” value in data set [4] was “does not cross the hematoencephalic barrier”. Moreover, the antihyperalgesic activity result in [9] is on record as “antihyperalgesic activity”.

As to “Cyclic Peptide -Asp-Ile-Ile-Ala-Asp-Asp-Glu-Pro-Leu-Thr- (DIIADDEPLT; cyclic; Artificial cyclic peptide modulator of cannabinoid receptors) [Modified peptide 6]”, in data set [10], the “activity when administered orally” value is recorded as “has activity even when orally administered”.

Take DIIADDAPLT [Modified peptide 3]: in the data set on CB1 receptor [11] (listed as SeqID:3), the “activity regarding the CB1 (receptor activating percentage regarding control)” value was “smaller activity”. Moreover, the “activity when administered orally” value in data set [10] is “has activity even when orally administered”.

As for DIIADDE [Modified peptide 4], the “activity regarding the CB1 (receptor activating percentage regarding control)” value in the data set with CB1 receptor [11] (listed as SeqID:4) was “improved inverse agonist activity”. Further, the “activity when administered orally” value in data set [10] is listed as “has activity even when orally administered”.

With DIIADDEALT [Modified peptide 5], the “activity in CB1 / endocannabinoid receptors in high dosages” value in the data set with CB1 receptor [11] (different dosages of drug, high dosages, listed as SeqID:5) is recorded as “agonist activity”. Further, the “activity in CB1 / endocannabinoid receptors in low dosages” value with CB1 receptor [11] (different dosages of drug, low dosages, listed as SeqID:5) is given as “activity inverse agonist”. For the same molecule, the “activity when administered orally” value in data set [10] is reported as “has activity even when orally administered”.

Consider “DIIADDEPLT [Modified peptide 1, Asp-Ile-Ile-Ala-Asp-Asp-Glu-Pro-Leu-Thr]”, for which, in [12], the “depression in forced swim test (immobility time)” value is recorded as “does not cause depression”.

DILADDEPLT [Modified peptide 2]: in [10], the “activity when administered orally” value is “has activity even when administered orally”. For the same molecule, the “activity in CB2 (receptor activating percentage regarding control)” value in the data set with CB2 receptor (listed as SeqID:2) is listed as “inverse agonist”.

Consider “third amino acid of the SeqID:1 (isoleucine amino acid) was replaced for threonine: sequence wherein the third amino acid of the SeqID:1 (isoleucine) was replaced for threonine (DITADDEPLT; Artificial peptide modulator of cannabinoid receptors)”, for which the “activity regarding the CB1 (receptor activating percentage regarding control)” value in the data set on CB1 receptor [11] is “biological activity loss; also recorded: have not demonstrated activity detectable”. Moreover, the “activity in CB2 (receptor activating percentage regarding control)” value with CB2 receptor was “have not demonstrated activity detectable”.
